Measured values taken from paper PMC8765781, “A platform of assays for the discovery of anti-Zika small-molecules with activity in a 3D-bioprinted outer-blood-retina model” (PLoS ONE, 2022).
Where two headings read alike, the source gives them in different places.

Key:
[1] = test system: ZIKV-RLuc (Cambodian strain FSS13025); experiment: microbe, parasite or virus in culture; assay type: cell-based, Zika virus
[2] = Zika virus, Vero, read-out: Log AC50 (M) (converted)

Structure (SMILES) | CC-v2 (curve class classification v2 of the dose response curve) [1] | Efficacy (difference between neutral response and maximum compound response) [1] | Max Resp (difference between neutral response and compound response for highest compound concentration) [1] | AC50 ([1]; Zika virus, Vero) [M] | AC50 [1, 2] [M] | AC50 (Vero cells) [µM] | Log AC50 (M) (Vero cells) | AC50 [1] [M] | Log AC50 (M) [1]
CN1CCCC(CC2c3ccccc3Sc3ccccc32)C1.Cl (stereo not drawn) [NCGC00273481-01] | -3 | -90.373 | -72.236 | 3.69e-05 | 3.69e-05 | 36.9 | -4.4327 |  | 
Cc1c(Cn2c(C)nc3c(C(=O)O)cc(N4CCOCC4)cc32)cccc1C(F)(F)F [NCGC00345796-01] | -2.2 | -74.499 | -73.923 | 1.47e-05 | 1.47e-05 | 14.7 | -4.8327 |  | 
O=C(CCCCCCNC(=O)c1cnc(N(c2ccccc2)c2ccccc2)nc1)NO [NCGC00345802-01] | -2.1 | -102.183 | -84.021 | 1.85e-05 | 1.85e-05 | 18.5 | -4.7327 |  | 
CN(C)Cc1c(C(=O)NCCOc2ccc(C(=O)NO)cc2)oc2ccccc12 [NCGC00346486-01] | -1.1 | -96.645 | -98.785 | 9.28e-06 | 9.27e-06 | 9.28 | -5.0327 |  | 
O=C1NC(=O)/C(=C/c2ccc3nccc(-c4ccncc4)c3c2)S1 [NCGC00346509-02] | -1.1 | -91.751 | -97.47 | 1.47e-06 | 1.47e-06 | 1.47 | -5.8327 |  | 
Cc1ccc(NC(=O)c2ccc(CN3CC[C@H](N(C)C)C3)c(C(F)(F)F)c2)cc1Nc1ncc(-c2cncnc2)cn1 [NCGC00346514-01] | -2.1 | -111.251 | -100.269 | 1.65e-05 | 1.65e-05 | 16.5 | -4.7827 |  | 
C[C@@H]1CC[C@@]2(OC1)O[C@H]1C[C@H]3[C@@H]4CC=C5C[C@@H](O[C@@H]6O[C@H](CO)[C@@H](O[C@@H]7O[C@@H](C)[C@H](O)[C@@H](O)[C@H]7O)[C@H](O)[C@H]6O[C@@H]6O[C@@H](C)[C@H](O)[C@@H](O)[C@H]6O)CC[C@]5(C)[C@H]4CC[C@]3(C)[C@H]1[C@@H]2C [NCGC00346600-01] | -1.1 | -96.499 | -99.01 | 3.29e-06 | 3.29e-06 | 3.29 | -5.4827 |  | 
O=C(O)C1=CO[C@@H](O[C@@H]2O[C@H](CO)[C@@H](O)[C@H](O)[C@H]2O)[C@@H]2C(CO)=CC[C@H]12 [NCGC00346663-03] | -3 | -105.712 | -86.968 | 2.56e-05 | 2.56e-05 | 25.6 | -4.5925 |  | 
CC(C)c1cc(-c2n[nH]c(=O)n2-c2ccc3c(ccn3C)c2)c(O)cc1O [NCGC00346678-01] | -2.2 | -44.79 | -44.962 | 8.27e-06 | 8.27e-06 | 8.27 | -5.0827 |  | 
CC(C)c1cc(-c2n[nH]c(=O)n2-c2ccc3c(ccn3C)c2)c(O)cc1O [NCGC00346678-04] | -2.2 | -65.758 | -62.389 |  |  | 9.28 | -5.0327 | 9.28e-06 | -5.0327
CNC(=O)c1cccc(-c2ccc3c(N4CCOC[C@@H]4C)nc(N4CCOC[C@@H]4C)nc3n2)c1 [NCGC00346698-01] | -2.2 | -76.837 | -71.465 | 1.65e-05 | 1.65e-05 | 16.5 | -4.7827 |  | 
CCN(CC)Cc1ccc2cc(COC(=O)Nc3ccc(C(=O)NO)cc3)ccc2c1 [NCGC00346743-01] | -1.2 | -68.967 | -98.985 | 2.61e-06 | 2.61e-06 | 2.61 | -5.5827 |  | 
COc1cc(C(=O)NC2CCN(C)CC2)ccc1Nc1ncc2c(n1)N(C1CCCC1)CCC(=O)N2C(C)C [NCGC00346965-01] | -2.4 | -47.886 | -47.265 | 1.31e-05 | 1.31e-05 | 13.1 | -4.8827 |  | 
CCOC(=O)N1CCN(/[N+]([O-])=N/Oc2ccc([N+](=O)[O-])cc2C#N)CC1 [NCGC00346969-01] | -1.1 | -94.201 | -99.104 | 3.29e-06 | 3.29e-06 | 3.29 | -5.4827 |  | 
C=C1[C@@H](O)[C@]2(O)OC[C@]34C2[C@]2(C)C(C[C@H]3OC(=O)[C@H](O)[C@@]14O)C(C)=CC(=O)[C@H]2O (stereo partly drawn) [NCGC00347491-02] | -2.2 | -33.078 | -33.995 | 7.23e-06 | 7.23e-06 | 7.23 | -5.1408 |  | 
CC(C)C(=O)O[C@H]1[C@@H]2[C@H](C)C(=O)O[C@@H]2C[C@@H](C)[C@@H]2C=CC(=O)[C@]21C [NCGC00347562-02] | -3 | -106.49 | -96.985 | 2.28e-05 | 2.28e-05 | 22.8 | -4.6425 |  | 
C=C(C)C1Cc2c(cc(O)c3c2OC2COc4cc(OC)c(OC)cc4C2(O)C3=O)O1 (stereo not drawn) [NCGC00347649-02] | -1.1 | -91.85 | -97.372 | 9.28e-08 | 9.27e-08 | 0.0927 |  |  | 
COC(=O)C1(Cc2ccc(O)c(CC=C(C)C)c2)OC(=O)C(OC)=C1c1cc(O)c(O)c(CC=C(C)C)c1 (stereo not drawn) [NCGC00347732-02] | -1.1 | -101.002 | -99.456 | 9.28e-06 | 9.27e-06 | 9.28 | -5.0327 |  | 
CC(C)=CCCC(C)(O)CCCC(C)(O)CCCC(C)(O)CCCC(C)(O)CCCC(C)(O)CCCC(C)(O)C(O)CC/C(C)=C/CC/C(C)=C/CO[C@@H]1O[C@H](CO)[C@@H](O)[C@H](O)[C@H]1O (stereo partly drawn) [NCGC00347748-02] | -1.1 | -100.94 | -99.117 | 3.62e-06 | 3.62e-06 | 3.62 | -5.4408 |  | 
CC(=O)OC1C=C(CO)C(=O)C(OC(=O)CC(C)C)C1C(C)C (stereo not drawn) [NCGC00347760-02] | -3 | -123.001 | -99.998 | 3.69e-05 | 3.69e-05 | 36.9 | -4.4327 |  | 
CC(C)(C)OC(=O)N[C@@H](Cc1ccc(O[S+](=O)([O-])c2cccc3cnccc23)cc1)C(=O)N1CCCN(C(=O)OC(C)(C)C)CC1 [NCGC00348020-01] | -3 | -104.596 | -83.301 | 3.69e-05 | 3.69e-05 | 36.9 | -4.4327 |  | 
CC1OC(OC2C(OC3C(OC4CCC5(C)C(CCC6(C)C5CC=C5C7CC(C)(C)CCC7(C(=O)O)C(O)CC56C)C4(C)C)OC(C(=O)O)C(O)C3O)OC(CO)C(OC3OCC(O)C(OC4OC(CO)C(O)C4O)C3O)C2OC2OC(C)C(O)C(O)C2O)C(O)C(O)C1O (stereo not drawn) [NCGC00380107-01] | -2.1 | -79.638 | -81.884 | 1.28e-05 | 1.28e-05 | 12.8 | -4.894 |  | 
